Consider 1 molecule from patent publication US7683024B2, “Polyaminoacids functionalized by alpha tocopherol and uses thereof, particular for therapeutic applications” (Flamel Technologies, priority 2002, dated 2010).

The data set is described as follows: Comparative analysis of solutions at 15 mg/ml in water at pH 7.4 (phosphate buffer). The data set is classed as physicochemical.

For `Cc1c(C)c2c(c(C)c1OC(=O)CCC(=O)O)CC[C@@](C)(CCC[C@H](C)CCC[C@H](C)CCCC(C)C)O2` [α-tocopherol succinate], the Appearance of solution entry is “milky solution”.
